Assays:
[1] = in vitro; conditions: human, liver microsomes
[2] = in vitro; conditions: rat, liver microsomes
[3] = in vitro; conditions: mouse, liver microsomes

CC(C1=NOC(C)(C(=O)N[C@@H](Cc2ccc(NC(=O)c3c(Cl)cccc3Cl)cc2)C(=O)O)C1)c1ccccc1 (stereo partly drawn)
remaining at 0.5 h [1]: 95% | remaining at 0.5 h [2]: 84.5% | remaining at 0.5 h [3]: 99%
